Data on seven molecules can be found in article PMC8041318, “Folic Acid–Peptide Conjugates Combine Selective Cancer Cell Internalization with Thymidylate Synthase Dimer Interface Targeting” (Journal of Medicinal Chemistry, 2021).

SMILES strings stand for the structures.

Series [1] relates to A2780 cells. The series is described as follows: Cell growth inhibition, crystal violet dye assay (combination study). The class given is cell-based, human.
Description: (§1) SQ was defined as the net growth inhibitory effect of the analogue combination divided by the sum of the net individual analogue effects on growth inhibition. A quotient of >1.1 indicates a synergistic effect, that between 0.9 and 1.1 indicates an additive effect, while a quotient of <0.9 indicates an antagonistic effect.
Series [2] has as its system hTS.
Series [3] concerns IGROV-1 cells. The series is described as follows: Cell growth inhibition, crystal violet dye assay. Format: cell-based, human.
Description: as §1
Series [4] concerns RFC. Conditions: physiological conditions; read-out: Km toward RFC; cited from earlier work.
Series [5] has as its system R1-11-FR2 and R5-FR12 HeLa cells. On the set-up: method as in PMID 19074442. Conditions: tritiated FA; cited from earlier work.
Series [6] in a line: in vitro. Conditions: human, cytosol.
Protocol: Given the relevance of the concentration data, we checked whether the 30 min incubation time could represent a drawback in our analytical approach.
C13* human ovarian cancer cell lines (highly cisplatin-resistant) were prepared as reported for IGROV1 (LC-MS compartmentalization experiment).[65] […] After each interval, the cells (about 2 million per Petri plate) were washed three times with acid phosphate-buffered saline (PBS, pH 5.0), scraped, and counted. […] Each cytosol aliquot was diluted to a final volume of 500 μL with a 1:1 mixture of H2O with 0.1% HCOOH and ACN with 1 μM 1,4-dithiothreitol (DTT) as an antioxidant agent.
Sample analysis was carried out on an UltiMate 3000 UHPLC (Thermo Fisher Scientific) coupled to an Orbitrap Q-Exactive mass spectrometer. We used an Agilent Poroshell C18 column (120 Å, 100 × 2.1 mm^2, 2.7 μm ps) to separate the analytes, thermostated at 30 °C, with an injection volume of 20 μL per sample. […] C13* cells were assumed to have a spherical volume of 2 pL, whose 60% represented by cytoplasm. Thus, interpolated values were multiplied by the final dilution value (500 μL) and divided by the number of cells for each sample multiplied by a single-cell cytosol volume (1.2 pL).
Series [7] deals with DHFR. Conditions: IGROV-1, 5 μM, 48 h.
Series [8] concerns HSP90AA1. Conditions: IGROV-1, 5 μM, 48 h.

For `O=c1[nH]cc(F)c(=O)[nH]1` [5-FU, 5-fluorouracil], the “% Growth inhibition, single compound” value in series [1] (5FU 10µM) is 45.3%; in series [1] (5FU 15µM), 34.5%; in series [3] (5FU 10µM), 28.4%; in series [3] (5FU 15µM), 36.5%. For the same molecule, in series [2] (IGROV-1, Figures SI-10 and SI-11), the “hTS protein levels (in words)” value was “slightly increased”.
In the case of `Nc1nc2ncc(CNc3ccc(C(=O)N[C@@H](CCC(=O)O)C(=O)O)cc3)nc2c(=O)[nH]1` [FA, folic acid], the Km in series [4] was greater than 100 µM. The “ratio of concentrations between vesicular and cytosolic fractions” value in series [5] is on record as 10.8.
The molecule `CC(C)C[C@H](NC(=O)CC[C@H](NC(=O)c1ccc(NCc2cnc3nc(N)[nH]c(=O)c3n2)cc1)C(=O)O)C(=O)N[C@@H](CO)C(=O)N[C@@H](CS)C(=O)N[C@@H](CCC(N)=O)C(=O)N[C@@H](CC(C)C)C(=O)N[C@@H](Cc1ccc(O)cc1)C(=O)N[C@@H](CCC(N)=O)C(=O)N[C@@H](CCCNC(=N)N)C(=O)O` [FA–LR] registered a half-life in series [6] of 3.33 h.
For the molecule `CC(C)C[C@H](NC(=O)CC[C@H](NC(=O)c1ccc(NCc2cnc3nc(N)nc(O)c3n2)cc1)C(=O)O)C(=O)N[C@@H](CO)C(=O)N[C@@H](CS)C(=O)N[C@H](CCC(N)=O)C(=O)N[C@@H](CC(C)C)C(=O)N[C@@H](Cc1ccc(O)cc1)C(=O)N[C@@H](CCC(N)=O)C(=O)N[C@@H](CCCNC(=N)N)C(=O)O` [FA–[DGln^4]LR], the “DHFR protein level with respect to control (in words)” value in series [7] is “clear decrease”. In series [8], the “reduction of HSP90AA1 level” value is given as 10%.
In the case of `Nc1nc2[nH]cc(CCc3ccc(C(=O)N[C@@H](CCC(=O)O)C(=O)O)cc3)c2c(=O)[nH]1` [PMX, pemetrexed], the “upregulation of hTS protein levels” value in series [2] (IGROV-1, 5 μM, 48 h) is 2.5 fold.
In the case of `[NH2][Pt]([NH2])([Cl])[Cl]` [cDDP, cisplatin], the “% Growth inhibition, single compound” value in series [1] (cDDP 1µM) stood at 37.3%; in series [1] (cDDP 2µM), 49.1%; in series [1] (cDDP 5µM), 78.6%; in series [3] (cDDP 1µM), 40.3%; in series [3] (cDDP 2µM), 44.9%; in series [3] (cDDP 5µM) it was 48.8%.
As to `Cc1nc2ccc(CN(C)c3ccc(C(=O)N[C@@H](CCC(=O)O)C(=O)O)s3)cc2c(=O)[nH]1` [raltitrexed], the “% Growth inhibition, single compound” value in series [1] (RTX 10nM) stood at 56.8%; in series [1] (RTX 20nM), 59.9%; in series [3] (RTX 10nM) it was 34.5%; in series [3] (RTX 20nM), 29.5%.
